Measured values reported in publication PMC8416018, “Characterization of the ABC methionine transporter from Neisseria meningitidis reveals that lipidated MetQ is required for interaction” (eLife, 2021).

Biological target: T1, lipo-NmMetQ:NmMetNI (methionine site) (Neisseria meningitidis, UniProt Q7DD63)
T1 construct: gene NMB1946; full-length MetQ, signal cleaved, triacylated at Cys20, C-terminal His10; MetNI with His10 on MetN; DDM-solubilized; E. coli; Methionine ABC transporter permease protein MetI
T1 sequence (Q7DD63 20-287): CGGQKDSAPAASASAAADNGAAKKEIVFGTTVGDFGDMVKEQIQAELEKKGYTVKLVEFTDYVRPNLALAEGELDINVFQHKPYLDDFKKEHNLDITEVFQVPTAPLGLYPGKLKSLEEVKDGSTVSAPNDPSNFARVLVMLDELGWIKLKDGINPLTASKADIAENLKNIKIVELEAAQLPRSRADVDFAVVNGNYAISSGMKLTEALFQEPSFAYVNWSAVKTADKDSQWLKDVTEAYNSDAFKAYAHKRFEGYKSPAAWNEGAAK
T1 sequence (Q9JXP2 1-245 partner): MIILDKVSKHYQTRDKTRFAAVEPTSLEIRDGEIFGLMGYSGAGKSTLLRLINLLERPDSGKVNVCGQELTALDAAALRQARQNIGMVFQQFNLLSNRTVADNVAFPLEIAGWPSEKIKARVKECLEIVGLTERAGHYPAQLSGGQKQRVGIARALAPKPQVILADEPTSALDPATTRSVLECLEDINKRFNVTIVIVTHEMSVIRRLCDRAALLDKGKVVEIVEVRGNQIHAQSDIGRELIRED
T1 sequence (Q9JXP3 1-228 partner): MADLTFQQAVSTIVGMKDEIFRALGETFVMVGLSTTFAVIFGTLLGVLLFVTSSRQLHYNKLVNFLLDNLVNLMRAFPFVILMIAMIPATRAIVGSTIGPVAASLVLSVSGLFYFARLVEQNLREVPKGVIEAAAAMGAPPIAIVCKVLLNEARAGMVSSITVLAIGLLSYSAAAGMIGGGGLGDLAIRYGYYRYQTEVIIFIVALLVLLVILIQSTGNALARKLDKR
Assay: EnzChek phosphate ATPase stimulation
Format: biochemical
Conditions: 2 mM ATP, NmMetNI:lipo-NmMetQ:analog 1:8:50 molar ratio, 5 mM MgCl2, pH 7.5, 37 C, 0.05% DDM

| SMILES | EnzChek phosphate ATPase stimulation |
| --- | --- |
| CSCC[C@H](NC=O)C(=O)O [N-formyl-L-methionine] | methionine analogs led to substrate-stimulated ATPase activity: N-acetyl-L-methionine, N-formyl-L-methionine |

Biological target: T2, NLM-NmMetQ (Neisseria meningitidis, UniProt Q7DD63)
T2 construct: gene NMB1946; made as in Nguyen et al. 2019; E. coli BL21(DE3) Gold
T2 sequence (Q7DD63 22-287): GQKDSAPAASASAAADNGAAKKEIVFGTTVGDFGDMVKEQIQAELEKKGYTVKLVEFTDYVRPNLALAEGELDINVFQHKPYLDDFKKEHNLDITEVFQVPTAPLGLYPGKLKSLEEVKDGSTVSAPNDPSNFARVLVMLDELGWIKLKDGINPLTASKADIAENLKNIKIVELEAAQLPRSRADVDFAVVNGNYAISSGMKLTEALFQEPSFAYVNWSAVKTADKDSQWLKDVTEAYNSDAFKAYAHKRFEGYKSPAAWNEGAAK
Assay: […] NMR FAXS competition
Format: binding
Conditions: 43 uM protein, 43 uM analog, 2 mM trifluoromethyl methionine reporter, T2 120 ms, 300 K; competitive

| SMILES | -ln(CPMG/1D) |
| --- | --- |
| CSCC[C@@H](N)C(=O)O [D-methionine] | D-methionine displaced less reporter than L-methionine |
| CCSCC[C@H](N)C(=O)O [L-ethionine] | addition of a methylene group (L-ethionine) was better tolerated |
| CCOC(=O)[C@@H](N)CCSC [L-methionine ethyl ester] | L-methionine ethyl ester only partially displaced the reporter molecule |
| CS(=N)(=O)CC[C@H](N)C(=O)O (stereo partly drawn) [L-methionine sulfoximine] | seleno-L-methionine, L-methionine sulfoximine, and L-norleucine were well tolerated |
| CSCC[C@H](N)C(=O)O [L-methionine] | L-methionine completely displaced the reporter molecule |
| CCCC[C@H](N)C(=O)O [L-norleucine] | seleno-L-methionine, L-methionine sulfoximine, and L-norleucine were well tolerated |
| CSCC[C@H](NC(C)=O)C(=O)O [N-acetyl-L-methionine] | Addition of these analogs led to the respective complete or near complete displacement |
| CSCC[C@H](NC=O)C(=O)O [N-formyl-L-methionine] | Addition of these analogs led to the respective complete or near complete displacement |
| C[Se]CC[C@H](N)C(=O)O [seleno-L-methionine] | seleno-L-methionine, L-methionine sulfoximine, and L-norleucine were well tolerated |

Biological target: T2, NLM-NmMetQ
Assay: […] NMR CPMG relaxation, direct reporter binding
Conditions: 43 uM protein, 2 mM reporter, T2 120 ms, 300 K

| SMILES | -ln(CPMG/1D) |
| --- | --- |
| N[C@@H](CCSC(F)(F)F)C(=O)O [Trifluoromethyl-methionine] | reporter molecule plus NLM-NmMetQ has a high -ln(CPMG/1D) ratio |
